The NIST ThermoML archive (doi:10.1016/j.jct.2014.01.012)

Assay: refractive index (Na D-line) (dimensionless); xn = mol fraction of the nth substance listed
Settings: 101 kPa, Liquid

CCCCCCCC[n+]1ccn(C)c1.F[P-](F)(F)(F)(F)F [1-octyl-3-methylimidazolium hexafluorophosphate] + CCCCOC(C)=O
refractive index
Settings | x1 = 0.1078 | x1 = 0.2016 | x1 = 0.3056 | x1 = 0.3855 | x1 = 0.4815 | x1 = 0.5918 | x1 = 0.6857 | x1 = 0.7784 | x1 = 0.8946 | x1 = 1
293.15 K | 1.40113 | 1.40658 | 1.41215 | 1.41536 | 1.41829 | 1.42036 | 1.42188 | 1.42339 | 1.42502 | 1.42649
298.15 K | 1.39916 | 1.40486 | 1.41053 | 1.41402 | 1.41692 | 1.41924 | 1.42067 | 1.42219 | 1.42373 | 1.42512
303.15 K | 1.39682 | 1.40307 | 1.40886 | 1.41241 | 1.41546 | 1.41801 | 1.41931 | 1.42073 | 1.42217 | 1.42376
308.15 K | 1.39502 | 1.40132 | 1.40721 | 1.41099 | 1.41402 | 1.41668 | 1.41801 | 1.41955 | 1.42089 | 1.4224
313.15 K | 1.39308 | 1.39963 | 1.40556 | 1.40944 | 1.41256 | 1.41529 | 1.41687 | 1.41835 | 1.41966 | 1.42103
318.15 K | 1.39114 | 1.39793 | 1.40399 | 1.40796 | 1.41132 | 1.41404 | 1.41575 | 1.41726 | 1.41848 | 1.41967
323.15 K | 1.38914 | 1.39622 | 1.40245 | 1.40652 | 1.41001 | 1.41272 | 1.41456 | 1.41606 | 1.41731 | 1.41831

CCCCCCCC[n+]1ccn(C)c1.F[P-](F)(F)(F)(F)F [1-octyl-3-methylimidazolium hexafluorophosphate] + CCOC(C)=O
refractive index
Settings | x1 = 0.1056 | x1 = 0.2064 | x1 = 0.308 | x1 = 0.4094 | x1 = 0.4991 | x1 = 0.5916 | x1 = 0.694 | x1 = 0.8121 | x1 = 0.8895 | x1 = 1
293.15 K | 1.38873 | 1.40004 | 1.40816 | 1.41301 | 1.41629 | 1.41842 | 1.4208 | 1.42285 | 1.42447 | 1.42649
298.15 K | 1.38754 | 1.39899 | 1.40705 | 1.41196 | 1.41523 | 1.41771 | 1.41971 | 1.42189 | 1.42354 | 1.42512
303.15 K | 1.38545 | 1.39759 | 1.40552 | 1.41088 | 1.41385 | 1.41655 | 1.41878 | 1.42063 | 1.42188 | 1.42376
308.15 K | 1.38383 | 1.39634 | 1.40439 | 1.40952 | 1.41311 | 1.41557 | 1.41792 | 1.42016 | 1.42072 | 1.4224
313.15 K | 1.38267 | 1.39498 | 1.40318 | 1.40842 | 1.41186 | 1.41447 | 1.41699 | 1.41906 | 1.41956 | 1.42103
318.15 K | 1.38145 | 1.39381 | 1.40208 | 1.40767 | 1.41108 | 1.41348 | 1.41612 | 1.41805 | 1.41852 | 1.41967
323.15 K | 1.38027 | 1.39276 | 1.40106 | 1.40658 | 1.41002 | 1.41266 | 1.41504 | 1.41746 | 1.41744 | 1.41831

CCCCCCn1cc[n+](C)c1.F[P-](F)(F)(F)(F)F [1-hexyl-3-methylimidazolium hexafluorophosphate] + CCCCOC(C)=O
refractive index, Standard Abbe refractometry
Settings | 293.15 K | 298.15 K | 303.15 K | 308.15 K | 313.15 K | 318.15 K | 323.15 K
x1 = 0.0956 | 1.40012 | 1.39835 | 1.39654 | 1.39469 | 1.39293 | 1.39102 | 1.38925
x1 = 0.1919 | 1.40555 | 1.40397 | 1.40209 | 1.40028 | 1.39856 | 1.39677 | 1.39495
x1 = 0.273 | 1.40899 | 1.40746 | 1.40564 | 1.40392 | 1.40223 | 1.40049 | 1.39879
x1 = 0.3698 | 1.41222 | 1.41064 | 1.40899 | 1.40735 | 1.40568 | 1.40401 | 1.40239
x1 = 0.4639 | 1.41432 | 1.41299 | 1.41138 | 1.40987 | 1.40837 | 1.40682 | 1.40529
x1 = 0.5701 | 1.41616 | 1.41482 | 1.41349 | 1.41215 | 1.41074 | 1.40945 | 1.40808
x1 = 0.6787 | 1.41768 | 1.41633 | 1.41519 | 1.41385 | 1.41265 | 1.41139 | 1.41024
x1 = 0.7746 | 1.41841 | 1.41727 | 1.41623 | 1.41512 | 1.41392 | 1.41269 | 1.41151
x1 = 0.8707 | 1.41937 | 1.41819 | 1.41713 | 1.41606 | 1.41477 | 1.41373 | 1.41268
x1 = 0.9354 | 1.41972 | 1.41876 | 1.41773 | 1.41651 | 1.41522 | 1.41386 | 1.41261
x1 = 1 | 1.42064 | 1.41935 | 1.41806 | 1.41676 | 1.41547 | 1.41417 | 1.41288

CCCCCCn1cc[n+](C)c1.F[P-](F)(F)(F)(F)F [1-hexyl-3-methylimidazolium hexafluorophosphate] + CCOC(C)=O
refractive index
Settings | 293.15 K | 298.15 K | 303.15 K | 308.15 K | 313.15 K | 318.15 K | 323.15 K
x1 = 0.09053 | 1.38737 | 1.38598 | 1.38515 | 1.38415 | 1.38344 | 1.38227 | 1.38202
x1 = 0.1751 | 1.39825 | 1.39706 | 1.39611 | 1.39519 | 1.39414 | 1.39389 | 1.39323
x1 = 0.2748 | 1.40432 | 1.40351 | 1.402 | 1.40105 | 1.40023 | 1.39983 | 1.3989
x1 = 0.3638 | 1.40809 | 1.40694 | 1.40594 | 1.40487 | 1.40397 | 1.40319 | 1.40308
x1 = 0.4747 | 1.41069 | 1.40989 | 1.40899 | 1.40784 | 1.40699 | 1.40607 | 1.40548
x1 = 0.5959 | 1.41247 | 1.41194 | 1.41159 | 1.41107 | 1.40998 | 1.4091 | 1.4082
x1 = 0.6988 | 1.41456 | 1.41432 | 1.41357 | 1.41273 | 1.41182 | 1.41087 | 1.40995
x1 = 0.7782 | 1.41641 | 1.41609 | 1.41526 | 1.41451 | 1.41389 | 1.41215 | 1.41181
x1 = 0.8784 | 1.41817 | 1.41813 | 1.41735 | 1.41622 | 1.41498 | 1.41315 | 1.41252
x1 = 0.9562 | 1.42009 | 1.41886 | 1.41756 | 1.41629 | 1.41507 | 1.41377 | 1.41258
x1 = 1 | 1.42064 | 1.41935 | 1.41806 | 1.41676 | 1.41547 | 1.41417 | 1.41288
